Experimental data taken from patent US20260297081A1, “COMPOUNDS AND METHODS OF TREATING CANCERS” (Cullgen Inc., priority 2023, published 2026).

Biological target: CDK4 (Homo sapiens, UniProt P11802+Q16531)
Experiment: CDK4 percentage degradation in Calu-1 cells (Table 6)
Type: cell-based
Design: Cells that express cyclin D1-3 and CDK4/6 proteins were treated with heterobifunctional compounds; endogenous in cells; host or cells: Calu-1
Conditions: 16 hours; for inhibition at 0.04 µM: 40 nM; for inhibition at 0.2 µM: 200 nM
Procedure, shortened: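 Percentage degradation of Cyclin D1 and CDK4 derived from densitometry of ECL Western blots on lysates of Calu-1 cells. Treatment was 16 h with compound at either 40 nM or 200 nM.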

Sequence of CDK4 (P11802 2-303 limits assumed): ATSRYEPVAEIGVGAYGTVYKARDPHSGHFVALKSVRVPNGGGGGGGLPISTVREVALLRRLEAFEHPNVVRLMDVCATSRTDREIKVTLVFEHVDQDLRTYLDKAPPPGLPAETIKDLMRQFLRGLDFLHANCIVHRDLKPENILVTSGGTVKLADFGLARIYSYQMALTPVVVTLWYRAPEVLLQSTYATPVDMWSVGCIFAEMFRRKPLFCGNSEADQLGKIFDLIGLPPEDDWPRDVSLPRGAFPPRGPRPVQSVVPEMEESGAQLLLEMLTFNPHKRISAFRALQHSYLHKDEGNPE
Sequence of CDK4 (P24385 whole entry partner): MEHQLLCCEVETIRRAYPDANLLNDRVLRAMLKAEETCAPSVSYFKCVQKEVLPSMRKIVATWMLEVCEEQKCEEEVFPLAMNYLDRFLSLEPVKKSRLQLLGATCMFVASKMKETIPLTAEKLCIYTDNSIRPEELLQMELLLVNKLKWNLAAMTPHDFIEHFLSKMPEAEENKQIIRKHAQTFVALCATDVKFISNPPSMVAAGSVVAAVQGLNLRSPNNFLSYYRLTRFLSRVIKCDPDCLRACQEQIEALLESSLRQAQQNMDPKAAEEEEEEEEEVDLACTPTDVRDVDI
Sequence of CDK4 (Q16531 2-1140 limits assumed): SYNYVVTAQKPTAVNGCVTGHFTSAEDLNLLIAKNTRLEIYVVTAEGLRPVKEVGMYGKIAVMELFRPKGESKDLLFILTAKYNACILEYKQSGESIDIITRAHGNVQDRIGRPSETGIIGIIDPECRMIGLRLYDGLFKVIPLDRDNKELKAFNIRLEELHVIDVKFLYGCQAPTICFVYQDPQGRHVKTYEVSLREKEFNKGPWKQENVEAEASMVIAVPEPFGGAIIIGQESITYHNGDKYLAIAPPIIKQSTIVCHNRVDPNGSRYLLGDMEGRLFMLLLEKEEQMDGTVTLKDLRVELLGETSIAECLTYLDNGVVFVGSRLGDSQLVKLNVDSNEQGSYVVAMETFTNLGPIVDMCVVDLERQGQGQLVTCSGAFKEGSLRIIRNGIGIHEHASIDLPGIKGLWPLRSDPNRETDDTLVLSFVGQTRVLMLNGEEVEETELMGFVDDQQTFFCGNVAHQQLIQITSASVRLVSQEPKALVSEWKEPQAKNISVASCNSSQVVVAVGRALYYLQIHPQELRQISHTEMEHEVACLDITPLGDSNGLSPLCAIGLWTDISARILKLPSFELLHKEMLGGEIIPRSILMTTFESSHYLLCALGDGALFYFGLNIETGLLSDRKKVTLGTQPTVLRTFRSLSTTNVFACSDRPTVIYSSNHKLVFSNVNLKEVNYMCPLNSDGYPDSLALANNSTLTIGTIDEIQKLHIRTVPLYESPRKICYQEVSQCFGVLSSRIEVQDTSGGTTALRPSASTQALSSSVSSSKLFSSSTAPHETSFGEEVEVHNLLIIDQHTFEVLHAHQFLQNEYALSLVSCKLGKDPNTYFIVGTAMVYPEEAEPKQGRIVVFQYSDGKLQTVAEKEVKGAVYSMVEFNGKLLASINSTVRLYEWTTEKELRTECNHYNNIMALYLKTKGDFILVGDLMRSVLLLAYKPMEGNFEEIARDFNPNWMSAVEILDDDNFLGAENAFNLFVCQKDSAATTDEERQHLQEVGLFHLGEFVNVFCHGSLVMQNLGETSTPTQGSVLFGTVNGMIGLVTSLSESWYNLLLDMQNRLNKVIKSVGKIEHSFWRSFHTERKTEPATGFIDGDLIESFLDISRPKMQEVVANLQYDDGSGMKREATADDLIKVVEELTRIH

inhibition at 0.04 µM	inhibition at 0.2 µM	Compound
< 30%	30 to 50%	CNc1ccc(C(=O)Nc2ccc(N(C)C)nn2)c(NC2CC3(CC(NC(=O)N4CCN(c5ccc(Nc6ncc7c(C)c(C(C)=O)c(=O)n(C8CCCC8)c7n6)nc5)CC4)C3)C2)n1 (stereo not drawn) [CPD-134, 4-(6-((6-Acetyl-8-cyclopentyl-5-methyl-7-oxo-7,8-dihydropyrido[2,3-d]pyrimidin-2-yl)amino)pyridin-3-yl)-N-(6-((3-((6-(dimethylamino)pyridazin-3-yl)carbamoyl)-6-(methylamino)pyridin-2-yl)amino)spiro[3.3]heptan-2-yl)piperazine-1-carboxamide]
30 to 50%	30 to 50%	CNc1ccc(C(=O)Nc2ccccn2)c(NC2CC3(CC(NC(=O)CN4CCN(c5ccc(Nc6ncc7c(C)c(C(C)=O)c(=O)n(C8CCCC8)c7n6)nc5)CC4)C3)C2)n1 (stereo not drawn) [CPD-137, 2-((6-(2-(4-(6-((6-Acetyl-8-cyclopentyl-5-methyl-7-oxo-7,8-dihydropyrido[2,3-d]pyrimidin-2-yl)amino)pyridin-3-yl)piperazin-1-yl)acetamido)spiro[3.3]heptan-2-yl)amino)-6-(methylamino)-N-(pyridin-2-yl)nicotinamide]
< 30%	30 to 50%	CC(=O)c1c(C)c2cnc(Nc3ccc(N4CCN(CC(=O)NC5CC6(C5)CC(Nc5nc(C7CC7)ccc5C(=O)Nc5cccc(C7CC7)n5)C6)CC4)cn3)nc2n(C2CCCC2)c1=O (stereo not drawn) [CPD-138, 2-((6-(2-(4-(6-((6-Acetyl-8-cyclopentyl-5-methyl-7-oxo-7,8-dihydropyrido[2,3-d]pyrimidin-2-yl)amino)pyridin-3-yl)piperazin-1-yl)acetamido)spiro[3.3]heptan-2-yl)amino)-6-cyclopropyl-N-(6-cyclopropylpyridin-2-yl)nicotinamide]
< 30%	50 to 80%	CNc1ccc(C(=O)Nc2ccc(N(C)C)nn2)c(NC2CC3(C2)CC(C(=O)N2CCN(c4ccc(Nc5ncc6c(C)c(C(C)=O)c(=O)n(C7CCCC7)c6n5)nc4)CC2)C3)n1 (stereo not drawn) [CPD-140, 2-((6-(4-(6-((6-Acetyl-8-cyclopentyl-5-methyl-7-oxo-7,8-dihydropyrido[2,3-d]pyrimidin-2-yl)amino)pyridin-3-yl)piperazine-1-carbonyl)spiro[3.3]heptan-2-yl)amino)-N-(6-(dimethylamino)pyridazin-3-yl)-6-(methylamino)nicotinamide]
< 30%	< 30%	CC(=O)c1c(C)c2cnc(Nc3ccc(N4CCN(CC(=O)NC5CC6(C5)CC(Nc5nc(C#N)ccc5C(=O)Nc5cccc(C7CC7)n5)C6)CC4)cn3)nc2n(C2CCCC2)c1=O (stereo not drawn) [CPD-141, 2-((6-(2-(4-(6-((6-Acetyl-8-cyclopentyl-5-methyl-7-oxo-7,8-dihydropyrido[2,3-d]pyrimidin-2-yl)amino)pyridin-3-yl)piperazin-1-yl)acetamido)spiro[3.3]heptan-2-yl)amino)-6-cyano-N-(6-cyclopropylpyridin-2-yl)nicotinamide]
< 30%		CC(=O)c1c(C)c2cnc(Nc3ccc(N4CCN(CC(=O)NCCCCCCCNc5nc(-c6ccc(C#N)nc6)ccc5C(=O)Nc5nc(C)c(C)s5)CC4)cn3)nc2n(C2CCCC2)c1=O [CPD-142]
< 30%	50 to 80%	CNc1ccc(C(=O)Nc2ccc(N(C)C)nn2)c(NCC2CCN(C(=O)CN3CCN(c4ccc(Nc5ncc6c(C)c(C(C)=O)c(=O)n(C7CCCC7)c6n5)nc4)CC3)CC2)n1 [CPD-145, 2-(((1-(2-(4-(6-((6-acetyl-8-cyclopentyl-5-methyl-7-oxo-7,8-dihydropyrido[2,3-d]pyrimidin-2-yl)amino)pyridin-3-yl)piperazin-1-yl)acetyl)piperidin-4-yl)methyl)amino)-N-(6-(dimethylamino)pyridazin-3-yl)-6-(methylamino)nicotinamide]
30 to 50%	50 to 80%	CNc1ccc(C(=O)Nc2ccc(N(C)C)nn2)c(NC2CC3(CC(CC(=O)N4CCN(c5ccc(Nc6ncc7c(C)c(C(C)=O)c(=O)n(C8CCCC8)c7n6)nc5)CC4)C3)C2)n1 (stereo not drawn) [CPD-147, 2-((6-(2-(4-(6-((6-acetyl-8-cyclopentyl-5-methyl-7-oxo-7,8-dihydropyrido[2,3-d]pyrimidin-2-yl)amino)pyridin-3-yl)piperazin-1-yl)-2-oxoethyl)spiro[3.3]heptan-2-yl)amino)-N-(6-(dimethylamino)pyridazin-3-yl)-6-(methylamino)nicotinamide]
50 to 80%	> 80%	CNc1ccc(C(=O)Nc2ccc(N(C)C)nn2)c(NC2CC(CC(=O)N3CCN(c4ccc(Nc5ncc6c(C)c(C(C)=O)c(=O)n(C7CCCC7)c6n5)nc4)CC3)C2)n1 (stereo not drawn) [CPD-148, 2-((3-(2-(4-(6-((6-acetyl-8-cyclopentyl-5-methyl-7-oxo-7,8-dihydropyrido[2,3-d]pyrimidin-2-yl)amino)pyridin-3-yl)piperazin-1-yl)-2-oxoethyl)cyclobutyl)amino)-N-(6-(dimethylamino)pyridazin-3-yl)-6-(methylamino)nicotinamide]
30 to 50%	50 to 80%	CNc1ccc(C(=O)Nc2ccc(N(C)C)nn2)c(NC2CC(NC(=O)CN3CCN(c4ccc(Nc5ncc6c(C)c(C(C)=O)c(=O)n(C7CCCC7)c6n5)nc4)CC3)C2)n1 (stereo not drawn) [CPD-149, 2-((3-(2-(4-(6-((6-acetyl-8-cyclopentyl-5-methyl-7-oxo-7,8-dihydropyrido[2,3-d]pyrimidin-2-yl)amino)pyridin-3-yl)piperazin-1-yl)acetamido)cyclobutyl)amino)-N-(6-(dimethylamino)pyridazin-3-yl)-6-(methylamino)nicotinamide]
50 to 80%	> 80%	CNc1ccc(C(=O)Nc2ccc(N(C)C)nn2)c(NC2CC(NC(=O)N3CCN(c4ccc(Nc5ncc6c(C)c(C(C)=O)c(=O)n(C7CCCC7)c6n5)nc4)CC3)C2)n1 (stereo not drawn) [CPD-151, 4-(6-((6-acetyl-8-cyclopentyl-5-methyl-7-oxo-7,8-dihydropyrido[2,3-d]pyrimidin-2-yl)amino)pyridin-3-yl)-N-(3-((3-((6-(dimethylamino)pyridazin-3-yl)carbamoyl)-6-(methylamino)pyridin-2-yl)amino)cyclobutyl)piperazine-1-carboxamide]
30 to 50%	50 to 80%	CNc1ccc(C(=O)Nc2cn(C)cn2)c(NC2CC3(CC(NC(=O)CN4CCN(c5ccc(Nc6ncc7c(C)c(C(C)=O)c(=O)n(C8CCCC8)c7n6)nc5)CC4)C3)C2)n1 (stereo not drawn) [CPD-152, 2-((6-(2-(4-(6-((6-acetyl-8-cyclopentyl-5-methyl-7-oxo-7,8-dihydropyrido[2,3-d]pyrimidin-2-yl)amino)pyridin-3-yl)piperazin-1-yl)acetamido)spiro[3.3]heptan-2-yl)amino)-N-(1-methyl-1H-imidazol-4-yl)-6-(methylamino)nicotinamide]
< 30%	< 30%	CNc1ccc(C(=O)Nc2ccnn2C)c(NC2CC3(CC(NC(=O)CN4CCN(c5ccc(Nc6ncc7c(C)c(C(C)=O)c(=O)n(C8CCCC8)c7n6)nc5)CC4)C3)C2)n1 (stereo not drawn) [CPD-153, 2-((6-(2-(4-(6-((6-acetyl-8-cyclopentyl-5-methyl-7-oxo-7,8-dihydropyrido[2,3-d]pyrimidin-2-yl)amino)pyridin-3-yl)piperazin-1-yl)acetamido)spiro[3.3]heptan-2-yl)amino)-N-(1-methyl-1H-pyrazol-5-yl)-6-(methylamino)nicotinamide]
< 30%	< 30%	CNc1ccc(C(=O)Nc2cccc(C3CC3)n2)c(NC[C@H]2CC[C@H](NC(=O)CN3CCN(c4ccc(Nc5ncc6c(C)c(C(C)=O)c(=O)n(C7CCCC7)c6n5)nc4)CC3)CC2)n1 [CPD-154, 2-(((trans-4-(2-(4-(6-((6-acetyl-8-cyclopentyl-5-methyl-7-oxo-7,8-dihydropyrido[2,3-d]pyrimidin-2-yl)amino)pyridin-3-yl)piperazin-1-yl)acetamido)cyclohexyl)methyl)amino)-N-(6-cyclopropylpyridin-2-yl)-6-(methylamino)nicotinamide]
50 to 80%	50 to 80%	CNc1ccc(C(=O)Nc2ccc(N(C)C)nn2)c(NC2CC(CCCC(=O)N3CCN(c4ccc(Nc5ncc6c(C)c(C(C)=O)c(=O)n(C7CCCC7)c6n5)nc4)CC3)C2)n1 (stereo not drawn) [CPD-156, 2-((3-(4-(4-(6-((6-acetyl-8-cyclopentyl-5-methyl-7-oxo-7,8-dihydropyrido[2,3-d]pyrimidin-2-yl)amino)pyridin-3-yl)piperazin-1-yl)-4-oxobutyl)cyclobutyl)amino)-N-(6-(dimethylamino)pyridazin-3-yl)-6-(methylamino)nicotinamide]
< 30%	50 to 80%	CNc1ccc(C(=O)Nc2ccon2)c(NC2CC3(CC(NC(=O)CN4CCN(c5ccc(Nc6ncc7c(C)c(C(C)=O)c(=O)n(C8CCCC8)c7n6)nc5)CC4)C3)C2)n1 (stereo not drawn) [CPD-159, 2-((6-(2-(4-(6-((6-acetyl-8-cyclopentyl-5-methyl-7-oxo-7,8-dihydropyrido[2,3-d]pyrimidin-2-yl)amino)pyridin-3-yl)piperazin-1-yl)acetamido)spiro[3.3]heptan-2-yl)amino)-N-(isoxazol-3-yl)-6-(methylamino)nicotinamide]
50 to 80%	> 80%	CNc1ccc(C(=O)Nc2cc(C)on2)c(NC2CC3(CC(NC(=O)CN4CCN(c5ccc(Nc6ncc7c(C)c(C(C)=O)c(=O)n(C8CCCC8)c7n6)nc5)CC4)C3)C2)n1 (stereo not drawn) [CPD-160, 2-((6-(2-(4-(6-((6-acetyl-8-cyclopentyl-5-methyl-7-oxo-7,8-dihydropyrido[2,3-d]pyrimidin-2-yl)amino)pyridin-3-yl)piperazin-1-yl)acetamido)spiro[3.3]heptan-2-yl)amino)-6-(methylamino)-N-(5-methylisoxazol-3-yl)nicotinamide]
